From US20150231199A1, “PEPTIDES AND THEIR USES” (priority 2012, published 2015)
≈ marks a conversion by molar mass, not a printed value. Like-named read-outs stand apart in the source and are kept apart here. Positions of bridges follow the written chain, without caps; N, C: chain ends. Residues, ends and D or L forms follow the SMILES beside them. Chains are numbered I, II in the order given. *: point of attachment. Myristoyl = CCCCCCCCCCCCCC(=O)*

What was measured:
Klebsiella pneumoniae = type: cell-based
Protocol: The minimum inhibitory concentration (MIC) was determined using the broth microdilution method. Bacterial cells (shown in Table 6) are grown in Mueller Hinton Broth (MHB) overnight. 100 μL of adjusted inoculum in MHB is added to 100 μL of each dilution of peptide or antibiotics dissolved in the broth, so as to yield a final cell density of 10^5 to 10^6 cfu/mL in each well. The plates were incubated at 35° C. for 24 h and the absorbance at 600 nm (OD600) was monitored every 30 minutes. A positive control well contained the broth and organisms (no peptides/antibiotics), and a negative control tube contains only the broth. The MIC of peptides for each clinical isolate or reference organism was recorded as the lowest concentration of peptide/antibiotic that inhibited visible growth of the test organism. To study the effect of Mg2+ on MIC of branched peptides, the concentration of MgCl2 was varied in MHB and the MIC was determined as before.

[1] = system: red blood cells (RBCs) of New Zealand white rabbits; experiment: in vitro; type: cell-based, rabbit
Protocol: Fresh red blood cells (RBCs) of New Zealand white rabbits were used for this experiment. The RBCs obtained were centrifuged at 3000 rpm for 10 min. Supernatant was removed and washed twice with sterile PBS Buffer (20 mM, 100 mM NaCl, pH 7). The RBCs were further diluted to 8% stock solution in PBS. Peptides were dissolved in PBS with desired stock concentrations. When compounds were mixed with RBCs, desired concentration of 4% RBCs was obtained. For C14V2D and C16V2D, they were dissolved in Dimethylformamide ([…]; DMF) with desired stock concentrations. When compounds were mixed with RBCs, desired concentration of 4% RBCs and 0.5% DMF was obtained. DMF concentration of <1% was used as it had negligible hemolytic activity on RBCs. The mixtures were added to 1.5 mL centrifuge tubes and incubated at 37° C. for 1 h. After incubation, the blood was centrifuged at 3000 rpm for 3 min at 4° C. 100 μL of the supernatant was transferred into transparent 96-well plate. The absorbance was measured at 576 nm using a microplate reader (TECAN Infinite 200M Pro). 2% Triton X-100 was used as positive control. PBS was used as negative controls. The amount of hemoglobin released was calculated using the following equation: […]

[2] = system: Escherichia coli ATCC27922; type: cell-based
Protocol: (§1) V2-dimer and all lipopeptides (FIG. 1A) used in this study were purchased from Mimotopes. All peptides were prepared by dissolving in sterile water to make 1000 μg/mL stock solutions. Minimum Inhibitory Concentration (MIC) determination was carried out in Mueller Hinton Broth (MHB) using the broth macro-dilution method as described by the Clinical and Laboratory Standards Institute (CLSI). Then, cation-adjusted MHB (CA-MHB) was used to prepare serial two fold dilutions of the compounds in test tubes. The concentration of the inoculums suspension was also adjusted to approximately 5×10^5 Colony Forming Units (CFU)/mL using MHB. Bacteria were incubated with the compounds for 24 hours at 35° C. prior to reading. In this study, Gram-positive strains used were Staphylococcus aureus DM4001 and Methicillin-resistant Staphylococcus aureus (MRSA) DM9808. Gram-negative strains used were Klebsiella pneumoniae DM4299, Pseudomonas aeruginosa ATCC23155 and Escherichia coli ATCC27922.

[3] = system: Klebsiella pneumoniae DM4299; type: cell-based
Protocol: as §1

in vitro [4] = type: cell-based; details: human
Protocol: The cytotoxicity of individual compounds screened was determined by the lactate dehydrogenase (LDH) assay. In brief, human corneal fibroblast cells were plated at a density of 10,000 cells per well in a 96-well opaque white plate (SPL Life Sciences Inc). Test compounds of various concentrations and controls were added to appropriate wells such that the final volume is 100 μl in each well. After 4 hours of exposure to the test compounds, the plates were removed from 37° C. incubator and equilibrated to 22° C. for 30 minutes. One hundred microliters of Cyto-TOX One reagent (Promega Inc. USA) was added to each well and the LDH assay was performed according to manufacturer's instructions. Fluorescence was assessed at an excitation wavelength of 560 nm and an emission wavelength of 590 nm using a micro-plate reader (Tecan Infinite 200 Pro, Switzerland). The cells exposed to 1% Triton X-100 were used as a positive control and treated as maximum releasing of LDH. The percent specific cytotoxicity of each compound was determined using the formula below (I=intensity):
% Cytotoxicity=[(Iexperiments)−(Inegative controls)]/[Ipositive controls)−(Inegative controls)]×100

Staphylococcus aureus = type: cell-based
Protocol: as §1
(§2) Methods used are as described in Example 1 above.

Pseudomonas aeruginosa = type: cell-based
Protocol: as §1, §2

[5] = system: Methicillin-resistant Staphylococcus aureus (MRSA); type: cell-based
Protocol: as §1, §2

in vitro [6] = type: cell-based; details: human; remark: listed apart in the source
Protocol: Cells were plated at a density of 10,000 cells per well in a 96-well opaque white plate (SPL Life Sciences Inc. Korea). Test compounds of various concentrations and controls were added to appropriate wells such that the final volume is 100 μl in each well. After 4 hours of exposure to the test compounds, the plates were removed from 37° C. incubator and equilibrated to 22° C. for 30 minutes. One hundred microliters of CellTiter-Glo reagent (Promega Inc. USA) was added to each well and the ATP assay was performed according to manufacturer's instructions. Luminescence was assessed using a micro-plate reader (Tecan Infinite 200 Pro, Switzerland). The cells exposed to 1% Triton X-100 were used as a positive control. The percent cell viable of each compound was determined using the formula below (L=Luminescence detected):
% Viability=[(Lnegative controls)−(Lexperiments)]/[(Lnegative controls)−(Lpositive controls)]×100

P. aeruginosa [7] = experiment: Time-kill kinetics assay; type: cell-based, Pseudomonas aeruginosa; details: both Pseudomonas strains at 1× and 2×MIC; compared with B2088; FIG. 13
Protocol: The kinetics of bactericidal action was performed by the assay reported before. Briefly, few colonies of overnight grown P. aeruginosa strains were collected from tryptic soy agar plate and suspended US pharmacopeia phosphate buffer (pH 7.2). The suspension was adjusted to an initial inoculum of 10^6 CFU/mL and incubated with various concentrations of B2088 and B2088—99 at 35° C. 0.1 mL aliquots were withdrawn at various time intervals, diluted […] fold using the same buffer, plated on tryptic soy agar plates and incubated at 35° C. The colonies were counted after 24 h incubation and expressed as CFU/mL. Buffer without peptides served as a positive control and % bacterial viability is estimated using the following equation:
Bacterial viability=1−(CFU/mL)peptide/(CFU/mL)control*100

P. aeruginosa ATCC 9027 = experiment: Outer membrane (OM) permeability assay (NPN); type: cell-based, Pseudomonas aeruginosa; details: FIG. 14
Protocol: To probe the OM permeability of peptides, a membrane impermeable probe N-phenyl-1-naphthyl amine (NPN) was used in the present study. The overnight cultured P. aeruginosa ATCC 9027 cells were harvested by centrifugation at 3000 rpm, 4° C. The resulting pellet was washed twice and resuspended in 5 mM HEPES buffer (pH 7.2) to OD600 of 0.4. The cells were placed in a 10 mm stirred cuvette and NPN was added to a final concentration of 10 μM. Appropriate concentrations of B2088 was added and the increase in fluorescence intensity was monitored on a Quanta Master fluorescence spectrophotometer (Photon Technology International, New Jersey, USA). The excitation and emission wavelengths were set at 350 and 410 nm with slid widths at 2 and 5 nm, respectively. The % NPN uptake was calculated relative to increase in NPN fluorescence intensity after the addition of 50 μM polymyxin B.

P. aeruginosa [8] = experiment: Bacterial viability assay (ED50); type: cell-based, Pseudomonas aeruginosa; details: P. aeruginosa ATCC 9027 and ATCC 27853; FIG. 12
Protocol: Cell viability was conducted for two Gram-negative bacteria (Pa 9027 and Pa 27853). The cultures were grown overnight in TS agar and a few isolated colonies were inoculated to achieve a turbidity equivalent to 0.5 McFarland standard. The cell concentration was adjusted to […] with 10 mM phosphate buffer and separated into different tubes to get final concentration of 10^5 CFU/ml. The peptides were added to the individual tubes to obtain concentrations of ⅛ MIC, ¼ MIC, ½ MIC, 1 MIC, 2 MIC and 4 MIC. The tubes were incubated at 37° C. for 22 h. Serial dilution was performed and 100 uL of the suspension was aliquot into MHA plate. The plates were incubated for 24 h at 37° C. for colony counting. Positive control was performed at 0 h and 22 h.

Row | SMILES | MIC (Klebsiella pneumoniae) | HC10 ([1]; red cells of rabbit, 1 h) | MIC [2] | MIC [3] | CC50 at 4 h (in vitro [4]) | MIC (Staphylococcus aureus) | MIC (Pseudomonas aeruginosa) | MIC [5] | CC50 at 4 h (in vitro [6]) | HC10 [1] | kill kinetics (P. aeruginosa [7]) | PC50 (concentration for 50% increase in NPN fluorescence intensity) compared with B2088 (P. aeruginosa ATCC 9027) | ED50 compared with B2088 (P. aeruginosa [8]) | MIC (Klebsiella pneumoniae; 24 h)
1 | CC(C)[C@H](NC(=O)[C@H](CCCCN)NC(=O)[C@H](CCCNC(=N)N)NC(=O)CNC(=O)[C@@H](N)CCCNC(=N)N)C(=O)N[C@H](C(=O)N[C@@H](CCCNC(=N)N)C(=O)N[C@@H](CCCNC(=N)N)C(=O)NCCCC[C@H](NC(=O)[C@H](CCCNC(=N)N)NC(=O)[C@H](CCCNC(=N)N)NC(=O)[C@@H](NC(=O)[C@@H](NC(=O)[C@H](CCCCN)NC(=O)[C@H](CCCNC(=N)N)NC(=O)CNC(=O)[C@@H](N)CCCNC(=N)N)C(C)C)C(C)C)C(=O)N[C@@H](CCCCN)C(=O)O)C(C)C [Peptide V2D, (RGRKVVRR)2KK] (I: H-RGRKVVRRKK-OH / II: H-RGRKVVRR; amide I:9-II:C) | 2.7 µM (≈ 6.19 µg/mL) | >2000 µg/mL | 2.73 µM (≈ 6.25 µg/mL) | 5.46 µM (≈ 12.5 µg/mL) | > 1000 µM | 5.46 µM (≈ 12.5 µg/mL) | 5.46 µM (≈ 12.5 µg/mL) | 2.73 µM (≈ 6.25 µg/mL) | > 1000 µM | – | – | – | – | –
2 | CCCCCCCCCCCCCC(=O)N[C@@H](CCCNC(=N)N)C(=O)NCC(=O)N[C@@H](CCCNC(=N)N)C(=O)N[C@@H](CCCCN)C(=O)N[C@H](C(=O)N[C@H](C(=O)N[C@@H](CCCNC(=N)N)C(=O)N[C@@H](CCCNC(=N)N)C(=O)NCCCC[C@H](NC(=O)[C@H](CCCNC(=N)N)NC(=O)[C@H](CCCNC(=N)N)NC(=O)[C@@H](NC(=O)[C@@H](NC(=O)[C@H](CCCCN)NC(=O)[C@H](CCCNC(=N)N)NC(=O)CNC(=O)[C@H](CCCNC(=N)N)NC(=O)CCCCCCCCCCCCC)C(C)C)C(C)C)C(=O)N[C@@H](CCCCN)C(=O)O)C(C)C)C(C)C [Peptide C14-V2D, (C13H23—CO—NH—RGRKVVRR)2KK] (I: Myristoyl-RGRKVVRRKK-OH / II: Myristoyl-RGRKVVRR; amide I:9-II:C; N-terminus and C-terminus assumed) | – | – | 1.15 µM (≈ 3.12 µg/mL) | 9.22 µM (≈ 25 µg/mL) | – | 2.30 µM (≈ 6.24 µg/mL) | 2.30 µM (≈ 6.24 µg/mL) | 2.30 µM (≈ 6.24 µg/mL) | – | ^b251.82 ± 5.2 ug/mL | – | – | – | –
3 | CC(=O)N[C@@H](CCCNC(=N)N)C(=O)NCC(=O)N[C@@H](CCCNC(=N)N)C(=O)N[C@@H](CCCCN)C(=O)N[C@H](C(=O)N[C@H](C(=O)N[C@@H](CCCNC(=N)N)C(=O)N[C@@H](CCCNC(=N)N)C(=O)NCCCC[C@H](NC(=O)[C@H](CCCNC(=N)N)NC(=O)[C@H](CCCNC(=N)N)NC(=O)[C@@H](NC(=O)[C@@H](NC(=O)[C@H](CCCCN)NC(=O)[C@H](CCCNC(=N)N)NC(=O)CNC(=O)[C@H](CCCNC(=N)N)NC(C)=O)C(C)C)C(C)C)C(=O)N[C@@H](CCCCN)C(=O)O)C(C)C)C(C)C [Peptide C2-V2D, (CH3—CO—NH—RGRKVVRR)2KK] (I: Ac-RGRKVVRRKK-OH / II: Ac-RGRKVVRR; amide I:9-II:C) | – | >2000 µg/mL | 2.63 µM (≈ 6.25 µg/mL) | 5.26 µM (≈ 12.5 µg/mL) | – | 5.26 µM (≈ 12.5 µg/mL) | 5.26 µM (≈ 12.5 µg/mL) | 2.63 µM (≈ 6.25 µg/mL) | – | – | – | – | – | –
4 | N=C(N)NCCC[C@H](NC(=O)CNC(=O)CNC(=O)[C@H](CCCCN)NC(=O)[C@H](CCCNC(=N)N)NC(=O)CNC(=O)[C@@H](N)CCCNC(=N)N)C(=O)N[C@@H](CCCNC(=N)N)C(=O)NCCCC[C@H](NC(=O)[C@H](CCCNC(=N)N)NC(=O)[C@H](CCCNC(=N)N)NC(=O)CNC(=O)CNC(=O)[C@H](CCCCN)NC(=O)[C@H](CCCNC(=N)N)NC(=O)CNC(=O)[C@@H](N)CCCNC(=N)N)C(=O)N[C@@H](CCCCN)C(=O)O [Peptide G2D, (RGRKGGRR)2KK] (I: H-RGRKGGRRKK-OH / II: H-RGRKGGRR; amide I:9-II:C; N-terminus and C-terminus assumed) | – | – | – | 2.94 µM (≈ 6.24 µg/mL) | – | 5.66 µM (≈ 12 µg/mL) | 2.94 µM (≈ 6.24 µg/mL) | 5.89 µM (≈ 12.5 µg/mL) | – | – | faster kill kinetics | higher | two times lower | 2.9 µM (≈ 6.16 µg/mL)
